According to patent US20260217701A1, “SELECTIVE BET INHIBITORS AND USES THEREOF” (Tay Therapeutics Limited, priority 2022, published 2026):
Marks after values point to notes of the source that are not given here.

Experiment: EAE study: body weight
Type: in vivo, C57BI/6 mice
Settings: for Mean Body Weight Change (% of Day −1): mean end body weight
Method: Experimental Method H: EAE in animals treated with a BET inhibitor and vehicle. Animals were assigned to the groups outlined in Table 38.
Compound A may be formulated as illustrated in Experimental Method A (see Table 2E.). A 40 mg/mL stock solution of Compound A in DMSO was prepared and aliquots stored at −20° C. On each day of preparation an e.g., 0.75 mL aliquot of thawed stock was diluted with an equal volume of DMSO. The remaining vehicle components were added to provide the highest dose and then diluted with vehicle to provide lower doses. A 30 mg/mL stock solution of FTY720 in ethanol was prepared and stored at −20° C. Daily, the stock solution was diluted with room temperature water to a final dosing concentration of 0.6 mg/mL. Formulated Compound A, FTY720 and vehicle were each at room temperature for dosing.
Female C57BI/6 mice (9 weeks old) were acclimated for seven days prior to study initiation. On Day-1, animals were assigned to groups in a balanced manner to achieve similar average weights across the different groups. Chronic EAE was induced in female C57BI/6 mice following immunization with an emulsion of MOG35-55/CFA on Day 0, followed by an injection of pertussis toxin two hours after the initial immunization. On Day 1, a second injection of pertussis toxin was administered 24 hours after the initial immunization. Mice were injected subcutaneously at two sites on the back with the MOG35-55/CFA emulsion (Hooke Kit™ MOG35-55/CFA Emulsion PTX). The first injection site was located approximately 1 cm caudal of the neckline (upper back), and the second injection site was approximately 2 cm cranial of the base of the tail (lower back). The injection volume was 0.1 mL for each injection. The pertussis toxin was administered at the described times through intraperitoneal injection at a concentration of 85 ng/dose for both injections.
Body weight was measured three times a week (Monday, Wednesday, and Friday) starting on Day-1. Animals were scored daily for EAE starting on Day 7. In-between scores were assigned when the clinical signs fell between two below defined scores.

[1] = Compound A 1 mg/kg (Group 2), Day 0
[2] = Compound A 1 mg/kg (Group 2), Day 2
[3] = Compound A 1 mg/kg (Group 2), Day 5
[4] = Compound A 1 mg/kg (Group 2), Day 7
[5] = Compound A 1 mg/kg (Group 2), Day 9
[6] = Compound A 1 mg/kg (Group 2), Day 12
[7] = Compound A 1 mg/kg (Group 2), Day 14
[8] = Compound A 1 mg/kg (Group 2), Day 16
[9] = Compound A 1 mg/kg (Group 2), Day 19
[10] = Compound A 1 mg/kg (Group 2), Day 21
[11] = Compound A 1 mg/kg (Group 2), Day 23
[12] = Compound A 1 mg/kg (Group 2), Day 27
[13] = Compound A 1 mg/kg (Group 2), Day 28
[14] = Compound A 1 mg/kg (Group 2), Day −1
[15] = Compound A 3 mg/kg (Group 3), Day 0
[16] = Compound A 3 mg/kg (Group 3), Day 2
[17] = Compound A 3 mg/kg (Group 3), Day 5
[18] = Compound A 3 mg/kg (Group 3), Day 7
[19] = Compound A 3 mg/kg (Group 3), Day 9
[20] = Compound A 3 mg/kg (Group 3), Day 12
[21] = Compound A 3 mg/kg (Group 3), Day 14
[22] = Compound A 3 mg/kg (Group 3), Day 16
[23] = Compound A 3 mg/kg (Group 3), Day 19
[24] = Compound A 3 mg/kg (Group 3), Day 21
[25] = Compound A 3 mg/kg (Group 3), Day 23
[26] = Compound A 3 mg/kg (Group 3), Day 27
[27] = Compound A 3 mg/kg (Group 3), Day 28
[28] = Compound A 3 mg/kg (Group 3), Day −1
[29] = Compound A 10 mg/kg (Group 4), Day 0
[30] = Compound A 10 mg/kg (Group 4), Day 2
[31] = Compound A 10 mg/kg (Group 4), Day 5
[32] = Compound A 10 mg/kg (Group 4), Day 7
[33] = Compound A 10 mg/kg (Group 4), Day 9
[34] = Compound A 10 mg/kg (Group 4), Day 12
[35] = Compound A 10 mg/kg (Group 4), Day 14
[36] = Compound A 10 mg/kg (Group 4), Day 16
[37] = Compound A 10 mg/kg (Group 4), Day 19
[38] = Compound A 10 mg/kg (Group 4), Day 21
[39] = Compound A 10 mg/kg (Group 4), Day 23
[40] = Compound A 10 mg/kg (Group 4), Day 27
[41] = Compound A 10 mg/kg (Group 4), Day 28
[42] = Compound A 10 mg/kg (Group 4), Day −1

## Cn1cc(-c2ccccc2)c(-c2cn(C)c(=O)c3[nH]c(-c4cnn(C(F)(F)F)c4)cc23)cc1=O [Compound A, 6-methyl-4-(1-methyl-2-oxo-5-phenyl-1,2-dihydropyridin-4-yl)-2-(1-(trifluoromethyl)-1H-pyrazol-4-yl)-1,6-dihydro-7H-pyrrolo[2,3-c]pyridin-7-one]
1 mg/kg
  Relative end weight (% of the mean Day-1 weight): 100.7%
3 mg/kg
  Relative end weight (% of the mean Day-1 weight): 103%
10 mg/kg
  Relative end weight (% of the mean Day-1 weight): 106%
[1]
  Mean Body Weight: 20.3 g
  Mean Body Weight (% of Day −1): 100.7 % of Day −1
[2]
  Mean Body Weight: 19.8 g
  Mean Body Weight (% of Day −1): 98.4 % of Day −1
[3]
  Mean Body Weight: 20.0 g
  Mean Body Weight (% of Day −1): 99.0 % of Day −1
[4]
  Mean Body Weight: 20.1 g
  Mean Body Weight (% of Day −1): 99.8 % of Day −1
[5]
  Mean Body Weight: 21.4 g
  Mean Body Weight (% of Day −1): 105.3 % of Day −1
[6]
  Mean Body Weight: 20.7 g
  Mean Body Weight (% of Day −1): 102.1 % of Day −1
[7]
  Mean Body Weight: 19.9 g
  Mean Body Weight (% of Day −1): 98.4 % of Day −1
[8]
  Mean Body Weight: 19.4 g
  Mean Body Weight (% of Day −1): 95.7 % of Day −1
[9]
  Mean Body Weight: 19.6 g
  Mean Body Weight (% of Day −1): 96.8 % of Day −1
[10]
  Mean Body Weight: 20.3 g
  Mean Body Weight (% of Day −1): 99.9 % of Day −1
[11]
  Mean Body Weight: 20.7 g
  Mean Body Weight (% of Day −1): 102.0 % of Day −1
[12]
  Mean Body Weight: 20.4 g
  Mean Body Weight (% of Day −1): 100.4 % of Day −1
[13]
  Mean Body Weight: 20.4 g
  Mean Body Weight (% of Day −1): 100.7 % of Day −1
[14]
  Mean Body Weight: 20.1 g
  Mean Body Weight (% of Day −1): 100.0 % of Day −1
Compound A 1 mg/kg
  Mean Body Weight Change (% of Day −1): 100.7* % of Day −1
[15]
  Mean Body Weight: 20.3 g
  Mean Body Weight (% of Day −1): 100.6 % of Day −1
[16]
  Mean Body Weight: 19.5 g
  Mean Body Weight (% of Day −1): 96.7 % of Day −1
[17]
  Mean Body Weight: 19.6 g
  Mean Body Weight (% of Day −1): 97.2 % of Day −1
[18]
  Mean Body Weight: 20.2 g
  Mean Body Weight (% of Day −1): 100.0 % of Day −1
[19]
  Mean Body Weight: 20.5 g
  Mean Body Weight (% of Day −1): 101.6 % of Day −1
[20]
  Mean Body Weight: 20.6 g
  Mean Body Weight (% of Day −1): 102.1 % of Day −1
[21]
  Mean Body Weight: 20.0 g
  Mean Body Weight (% of Day −1): 99.5 % of Day −1
[22]
  Mean Body Weight: 19.5 g
  Mean Body Weight (% of Day −1): 96.9 % of Day −1
[23]
  Mean Body Weight: 19.5 g
  Mean Body Weight (% of Day −1): 97.0 % of Day −1
[24]
  Mean Body Weight: 20.3 g
  Mean Body Weight (% of Day −1): 101.5 % of Day −1
[25]
  Mean Body Weight: 20.8 g
  Mean Body Weight (% of Day −1): 103.9 % of Day −1
[26]
  Mean Body Weight: 20.4 g
  Mean Body Weight (% of Day −1): 101.8 % of Day −1
[27]
  Mean Body Weight: 20.6 g
  Mean Body Weight (% of Day −1): 103.0 % of Day −1
[28]
  Mean Body Weight: 20.2 g
  Mean Body Weight (% of Day −1): 100.0 % of Day −1
Compound A 3 mg/kg
  Mean Body Weight Change (% of Day −1): 103.0*** % of Day −1
[29]
  Mean Body Weight: 20.5 g
  Mean Body Weight (% of Day −1): 101.1 % of Day −1
[30]
  Mean Body Weight: 19.8 g
  Mean Body Weight (% of Day −1): 97.9 % of Day −1
[31]
  Mean Body Weight: 20.0 g
  Mean Body Weight (% of Day −1): 98.9 % of Day −1
[32]
  Mean Body Weight: 20.4 g
  Mean Body Weight (% of Day −1): 101.0 % of Day −1
[33]
  Mean Body Weight: 20.6 g
  Mean Body Weight (% of Day −1): 101.9 % of Day −1
[34]
  Mean Body Weight: 20.2 g
  Mean Body Weight (% of Day −1): 99.9 % of Day −1
[35]
  Mean Body Weight: 19.6 g
  Mean Body Weight (% of Day −1): 97.2 % of Day −1
[36]
  Mean Body Weight: 19.1 g
  Mean Body Weight (% of Day −1): 94.7 % of Day −1
[37]
  Mean Body Weight: 20.0 g
  Mean Body Weight (% of Day −1): 99.1 % of Day −1
[38]
  Mean Body Weight: 20.7 g
  Mean Body Weight (% of Day −1): 102.3 % of Day −1
[39]
  Mean Body Weight: 21.1 g
  Mean Body Weight (% of Day −1): 104.2 % of Day −1
[40]
  Mean Body Weight: 21.0 g
  Mean Body Weight (% of Day −1): 104.0 % of Day −1
[41]
  Mean Body Weight: 21.4 g
  Mean Body Weight (% of Day −1): 106.0 % of Day −1
[42]
  Mean Body Weight: 20.2 g
  Mean Body Weight (% of Day −1): 100.0 % of Day −1
Compound A 10 mg/kg
  Mean Body Weight Change (% of Day −1): 106.0*** % of Day −1
